Assay results from patent publication US20020183725A1, “Masking Agent” (priority 2001, published 2002).

How the values were obtained:
[1] = Fluorescence under the incident laser beam; type: physicochemical; conditions: laser beam incident on it
Description: This would be a useful property in PTK.

[2] = Light absorption study of masking solutions with laser radiation (Beer's law, transmission vs. concentration); type: physicochemical; conditions: 213 nm laser wavelength; reciprocal of absorption coefficient
Description: Light absorbent studies were carried out using 213 nm radiation produced as the fifth harmonic wavelength of the fundamental 1064 nm wavelength of an Nd:YAG laser, with a pulse duration of 6 ns and repetition rate of 20 Hz. The pulse energy of the laser was monitored using an energy detector and a storage oscilloscope. The energy of the laser was obtained from the amplitude of the voltage signal delivered from the detector.
Beer's Law states that if light is passed through solution, energy is attenuated according to the formula:
Where: αM is the molar absorption coefficient in M^−1 cm^−1
C is the concentration in moles per liter
Ef and Ei are the final and initial pulse energies respectively.
In order to determine the amount of light absorbed (A) by the solution the molar absorption co-efficient is found from the gradient of the log-linear plot of Beer's law.
The absorption coefficient (α cm^−1) can then be calculated by multiplying the molar absorption coefficient by the concentration. Once the absorption coefficient is obtained, the penetration depth can be calculated from the reciprocal of this value.
Readings were taken for BSS maintaining the same dilutions. […] Five random readings were taken for each dilution and the mean calculated, in order to reduce the error from inter-pulse variations. […]

Compound: CC1COc2c(N3CCN(C)CC3)c(F)cc3c(=O)c(C(=O)O)cn1c23 (centres unmarked) [Ofloxacin, 9-fluoro-2,3-dihydro-3-methyl-10-(4-methyl-1-piperazinyl)-7-oxo-7H-pyrido[1,2,3-de][1,4]benzoxazine-6-carboxylic acid]
- Fluorescence when the laser beam is incident [1]: fluoresces
- Penetration Depth [2]: 50.3 μm
